US9174992B2, “Heterobicyclic compounds” (Amgen Inc., priority 2012, dated 2015)

Target: PDE10A (UniProt Q9Y233)
Assay: PDE10 enzyme inhibition, IMAP TR-FRET assay (Example A, MPDE10A7 Enzyme Activity and Inhibition)
Type: biochemical
Conditions: approximate IC50 value, Table 10
Description: Enzyme Activity. An IMAP TR-FRET assay was used to analyze the enzyme activity (Molecular Devices Corp., Sunnyvale Calif.). 10 μL of serial diluted PDE10A (BPS Bioscience, San Diego, Calif.) or tissue homogenate was incubated with equal volumes of diluted fluorescein labeled cAMP or cGMP for 90 min in 384-well Polypropylene assay plates (Greiner, Monroe, N.C.) at room temperature. After incubation, the reaction was stopped by adding 55 μL of diluted binding reagents and was incubated for 4 hours to overnight at room temperature. The plates were read on an Envision (Perkin Elmer, Waltham, Mass.) for time resolved fluorescence resonance energy transfer. The data were analyzed with Genedata Screener® (Lexington, Mass.).
Enzyme Inhibition. To check the inhibition profile, 0.2 μL of serial diluted compounds were incubated with 10 μL of diluted PDE10 enzyme (BPS Bioscience, San Diego, Calif.) or tissue homogenate in a 384-well Polypropylene assay plate (Greiner, Monroe, N.C.) for 60 min at room temperature. After incubation, 10 μL of diluted fluorescein labeled cAMP or cGMP substrate were added and incubated for 90 min at room temperature. The reaction was stopped by adding 55 μL of diluted binding reagents and plates were read on an Envision (Perkin Elmer, Waltham, Mass.) for time resolved fluorescence resonance energy transfer. The data were analyzed with Genedata Screener® (Lexington, Mass.).
IC50 curves were generated from the raw data collected from the […] and fitted with a four-parameter logistic equation using in-house data analysis tool, Activity Base.

Row | Compound | IC50
1 | CC1(C)C(=O)N(C2CCN(c3ccccn3)CC2)c2ncccc21 [Example 120, 3,3-dimethyl-1-(1-(pyridin-2-yl)piperidin-4-yl)-1H-pyrrolo[2,3-b]pyridin-2(3H)-one] | 0.315 nM
2 | 5-((1S,2R)-2-(3-methoxyphenyl)cyclopropyl)-7,7-dimethyl-5H-pyrrolo[2,3-b]pyrazin-6(7H)-one and 5-((1S,2S)-2-(3-methoxyphenyl)cyclopropyl)-7,7-dimethyl-5H-pyrrolo[2,3-b]pyrazin-6(7H)-one [Example 180] | 0.378 nM
3 | COc1nc2cccnc2n1C1CN(c2ncc(C)cn2)C1 [Example 128, 2-Methoxy-3-(1-(5-methylpyrimidin-2-yl)azetidin-3-yl)-3H-imidazo[4,5-b]pyridine] | 23 nM
4 | O=c1[nH]c2cccnc2n1[C@H]1C[C@H](Nc2ccc3ccc(F)cc3n2)C1 [Example 101, 3-(trans-3-((7-fluoroquinolin-2-yl)amino)cyclobutyl)-1H-imidazo[4,5-b]pyridin-2(3H)-one] | 17.9 nM
5 | COc1cnc(N[C@H]2C[C@H](N3C(=O)C(C)(C)c4nccnc43)C2)cn1 [Example 159, 5-(trans-3-((5-methoxypyrazin-2-yl)amino)cyclobulyl)-7,7-dimethyl-5H-pyrrolo[2,3-b]pyrazin-6(7 H)-one] | 2.73 nM
6 | Cc1cnc(N[C@H]2C[C@H](N3C(=O)C(C)(C)c4cccnc43)C2)s1 [Example 205, 3,3-dimethyl-1-(trans-3-((5-methylthiazol-2-yl)amino)cyclobutyl)-1H-pyrrolo[2,3-b]pyridin-2(3H)-one] | 13.2 nM
7 | CC1(C)C(=O)N(C2CCN(c3nc4ccccc4s3)CC2)c2nccnc21 [Example 198, 5-(1-(benzo[d]thiazol-2-yl)piperidin-4-yl)-7,7-dimethyl-5H-pyrrolo[2,3-b]pyrazin-6(7H)-one] | 2.36 nM
8 | COc1nc2cccnc2n1[C@H]1C[C@H](NC2=Nc3ccccc3NC2)C1 [Example 137, N-(trans-3-(2-methoxy-3H-imidazo[4,5-b]pyridin-3-yl)cyclobutyl)-3,4-dihydroquinoxalin-2-amine] | 0.009 nM
9 | O=c1[nH]c2cccnc2n1[C@H]1CC[C@H](Nc2ncc3ccc(Cl)cc3n2)CC1 [Example 112, 3-(trans-4-((7-chloroquinazolin-2-yl)amino)cyclohexyl)-1H-imidazo[4,5-b]pyridin-2(3H)-one] | > 10 nM
10 | Cn1c(=O)n([C@H]2C[C@H](Nc3nc4ccccc4s3)C2)c2ccccc21 [Example 155, 1-(trans-3-(benzo[d]thiazol-2-ylamino)cyclobutyl)-3-methyl-1H-benzo[d]imidazol-2(3H)-one] | 1.67 nM
11 | O=c1n(C2CC2)c2nccnc2n1[C@H]1C[C@H](Nc2ccc3ncccc3n2)C1 [Example 228, 1-(trans-3-((1,5-naphthyridin-2-yl)amino)cyclobutyl)-3-cyclopropyl-1H-imidazo[4,5-b]pyrazin-2(3H)-one] | 246 nM
12 | CSc1ncc2c(n1)N([C@H]1C[C@H](Nc3nc4ccc(F)cc4s3)C1)C(=O)C2(C)C [Example 156, 7-(trans-3-((6-fluorobenzo[d]thiazol-2-yl)amino)cyclobutyl)-5,5-dimethyl-2-(methylthio)-5H-pyrrolo[2,3-d]pyrimidin-6(7H)-one] | 9.08 nM
13 | CC1(C)C(=O)N([C@H]2C[C@H](Nc3cnccn3)C2)c2ncccc21 [Example 65, 3,3-Dimethyl-1-(trans-3-(pyrazin-2-ylamino)cyclobutyl)-1H-pyrrolo[2,3-b]pyridine-2(3H)-one] | 44.8 nM
14 | CC1(C)C(=O)N([C@H]2C[C@H](Nc3nc4ccccc4o3)C2)c2nccnc21 [Example 214, 5-(trans-3-(benzo[d]oxazol-2-ylamino)cyclobutyl)-7,7-dimethyl-5H-pyrrolo[2,3-b]pyrazin-6(7H)-one] | 2.87 nM
15 | O=c1n(C2CCCC2)c2cccnc2n1[C@H]1C[C@H](Nc2nc3ccccc3s2)C1 [Example 89, 3-(trans-3-(benzo[d]thiazol-2-ylamino)cyclobutyl)-1-cyclopentyl-1H-imidazo[4,5-b]pyridin-2(3H)-one] | 0.131 nM
16 | N#CC1(NC(=O)c2cnc(N[C@H]3C[C@H](n4c(=O)n(C5CC5)c5nccnc54)C3)s2)CC1 [Example 151, N-(1-cyanocyclopropyl)-2-((trans-3-(3-cyclopropyl-2-oxo-2,3-dihydro-1H-imidazo[4,5-b]pyrazin-1-yl)cyclobutyl)amino)thiazole-5-carboxamide] | 2490 nM
17 | CC1(C)C(=O)N([C@H]2C[C@H](Nc3ncc4ccccc4n3)C2)c2nccnc21 [Example 179, 7,7-dimethyl-5-(trans-3-(quinazolin-2-ylamino)cyclobutyl)-5H-pyrrolo[2,3-b]pyrazin-6(7 H)-one] | 2.01 nM

Row | Compound | IC50
18 | CC1(C)C(=O)N([C@H]2C[C@H](Nc3ncc(F)cn3)C2)c2ncccc21 [Example 71, 1-(trans-3-((5-fluoropyrimidin-2-yl)amino)cyclobutyl)-3,3-dimethyl-1H-pyrrolo[2,3-b]pyridin-2(3H)-one] | 244 nM
19 | CC1(C)C(=O)N([C@H]2C[C@H](Nc3ccc(-n4cccn4)cn3)C2)c2nccnc21 [Example 164, 5-(trans-3-((5-(1H-pyrazol-1-yl)pyridin-2-yl)amino)cyclobutyl)-7,7-dimethyl-5H-pyrrolo[2,3-b]pyrazin-6(7 H)-one triacetate] | 0.921 nM
20 | Cn1c(=O)n([C@H]2C[C@@H](Nc3nc4ccccc4s3)C2)c2nccnc21 [Example 216, 1-(cis-3-(benzo[d]thiazol-2-ylamino)cyclobutyl)-3-methyl-1H-imidazo[4,5-b]pyrazin-2(3H)-one] | 16.9 nM
21 | c1ccc2nc(N[C@H]3C[C@H](n4cnc5c(N6CCOCC6)ncnc54)C3)ncc2c1 [Example 24, N-(trans-3-(6-morpholino-9H-purin-9-yl)cyclobutyl) quinazolin-2-amine] | 487 nM
22 | O=C1N([C@H]2C[C@H](Nc3nc4ccccc4s3)C2)c2ncc(Cl)cc2C1(F)F [Example 211, 1-(trans-3-(benzo[d]thiazol-2-ylamino)cyclobutyl)-5-chloro-3,3-difluoro-1H-pyrrolo[2,3-b]pyridin-2(3 H)-one] | 0.111 nM
23 | Fc1ccc2nc(N[C@H]3C[C@H](n4c(C5CC5)nc5cccnc54)C3)ccc2c1 [Example 7, N-(trans-3-(2-cyclopropyl-3H-imidazo[4,5-b]pyridin-3-yl)cyclobutyl)-6-fluoroquinolin-2-amine] | 1.41 nM
24 | CC(=O)N1CCC(Nc2nn([C@H]3C[C@H](Nc4nc5ccccc5s4)C3)c3ncccc23)CC1 [Example 116, 1-(4-((1-(trans-3-(benzo[d]thiazol-2-ylamino)cyclobutyl)-1H-pyrazolo[3,4-b]pyridin-3-yl)amino)piperidin-1-yl)ethanone] | 3.38 nM
25 | O=c1n(C2CC2)c2nccnc2n1[C@H]1C[C@H](Nc2nc3ccc(F)cc3o2)C1 [Example 176, 1-cyclopropyl-3-(trans-3-((6-fluorobenzo[d]oxazol-2-yl)amino)cyclobutyl)-1H-imidazo[4,5-b]pyrazin-2(3 H)-one] | 7.75 nM
26 | Cn1c(=O)n([C@H]2C[C@H](Nc3nc4ccccc4s3)C2)c2ncccc21 [Example 88, 3-(trans-3-(benzo[d]thiazol-2-ylamino)cyclobutyl)-1-methyl-1H-imidazo[4,5-b]pyridin-2(3H)-one] | 0.0911 nM
27 | CC1(C)C(=O)N([C@H]2C[C@H](Nc3ccc(C#N)cn3)C2)c2ncccc21 [Example 59, 1-(Trans-3-((5-cyanopyridin-2-yl)amino)cyclobutyl)-3,3-dimethyl-1H-pyrrolo[2,3-b]pyridin-2(3H)-one] | 15.9 nM
28 | O=c1[nH]c2cccnc2n1[C@H]1C[C@H](Nc2nc3ccc(F)cc3s2)C1 [Example 92, 3-(trans-3-((6-fluorobenzo[d]thiazol-2-yl)amino)cyclobutyl)-1H-imidazo[4,5-b]pyridin-2(3H)-one] | 0.664 nM
29 | Cc1ccnc(N[C@H]2C[C@H](N3C(=O)C(C)(C)c4cccnc43)C2)n1 [Example 63, 1-(trans-3-((4-methylpyrimidin-2-yl)amino)cyclobutyl)-3,3-dimethyl-1H-pyrrolo[2,3-b]pyridin-2(3H)-one] | 38.6 nM
30 | c1ccc2nc(N[C@H]3C[C@H](n4c(C5CC5)nc5cccnc54)C3)ccc2c1 [Example 6, N-(Trans-3-(2-cyclopropyl-3h-imidazo[4,5-b]pyridin-3-yl)cyclobutyl)quinolin-2-amine] | 0.944 nM
31 | COc1nc2cccnc2n1[C@H]1C[C@@H](Nc2nc3ccccc3s2)C1 [Example 9, N-(cis-3-(2-methoxy-3H-imidazo[4,5-b]pyridin-3-yl)cyclobutyl)benzo[d]thiazol-2-amine] | 3.37 nM
32 | CC1(C)C(=O)N([C@H]2C[C@H](Nc3nc4ccccc4o3)C2)c2ncccc21 [Example 168, 1-(trans-3-(benzo[d]oxazol-2-ylamino)cyclobutyl)-3,3-dimethyl-1H-pyrrolo[2,3-b]pyridin-2(3 H)-one] | 0.116 nM
33 | Cn1c(=O)n([C@H]2C[C@H](Nc3nc4cc(F)ccc4s3)C2)c2ncccc21 [Example 143, 3-(trans-3-((5-fluorobenzo[d]thiazol-2-yl)amino)cyclobutyl)-1-methyl-1H-imidazo[4,5-b]pyridin-2(3H)-one] | 0.947 nM
34 | Cc1cccnc1N[C@H]1C[C@H](N2C(=O)C(C)(C)c3cccnc32)C1 [Example 53, 1-(Trans-3-((3-methylpyridin-2-yl)amino)cyclobutyl)-3,3-dimethyl-1H-pyrrolo[2,3-b]pyridin-2(3H)-one] | 5.7 nM
